# PubChem BioAssay (NCI)
#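 Tested at 5 concentrations; 48 h exposure; 96-well plates; endpoints linearly interpolated, else capped at highest concentration. GI50 is the concentration that inhibits growth by half. TGI is the concentration that stops growth completely.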
# Tests used:
# Assay in all cases: inhibition of tumour cell growth, NCI panel, 48 h
# T-47D breast = test system: T-47D breast
# BT-549 breast = test system: BT-549 breast
# MCF7 breast = test system: MCF7 breast
# NCI-H23 lung = test system: NCI-H23 lung
# OVCAR-5 ovarian = test system: OVCAR-5 ovarian
# NCI-H522 lung = test system: NCI-H522 lung
# MALME-3M melanoma = test system: MALME-3M melanoma
# SK-OV-3 ovarian = test system: SK-OV-3 ovarian
# SNB-75 CNS = test system: SNB-75 CNS
# OVCAR-4 ovarian = test system: OVCAR-4 ovarian
# LOX IMVI melanoma = test system: LOX IMVI melanoma
# MDA-MB-435 = test system: MDA-MB-435
# SW-620 colon = test system: SW-620 colon
# COLO 205 colon = test system: COLO 205 colon
# SF-268 CNS = test system: SF-268 CNS
# SNB-19 CNS = test system: SNB-19 CNS
# 786-0 renal = test system: 786-0 renal
# UO-31 renal = test system: UO-31 renal
# PC-3 prostate = test system: PC-3 prostate
# UACC-257 melanoma = test system: UACC-257 melanoma
# ACHN renal = test system: ACHN renal
# SN12C renal = test system: SN12C renal
# HOP-92 NSCLC = test system: HOP-92 NSCLC
# DU-145 prostate = test system: DU-145 prostate
# RPMI-8226 leukemia = test system: RPMI-8226 leukemia
# OVCAR-8 ovarian = test system: OVCAR-8 ovarian
# NCI-H460 lung = test system: NCI-H460 lung
# HOP-62 NSCLC = test system: HOP-62 NSCLC
# SK-MEL-2 melanoma = test system: SK-MEL-2 melanoma
# OVCAR-3 ovarian = test system: OVCAR-3 ovarian
# SF-539 CNS = test system: SF-539 CNS
# U251 CNS = test system: U251 CNS
# SK-MEL-28 melanoma = test system: SK-MEL-28 melanoma
# IGROV1 ovarian = test system: IGROV1 ovarian
# CAKI-1 renal = test system: CAKI-1 renal
# K-562 leukemia = test system: K-562 leukemia
# NCI-H226 lung = test system: NCI-H226 lung
# HCT-15 colon = test system: HCT-15 colon
# SF-295 CNS = test system: SF-295 CNS
# HS 578T breast = test system: HS 578T breast
# A498 renal = test system: A498 renal
# HCC-2998 colon = test system: HCC-2998 colon
# A549 NSCLC = test system: A549 NSCLC
# MDA-MB-231 breast = test system: MDA-MB-231 breast
# UACC-62 melanoma = test system: UACC-62 melanoma
# SR leukemia = test system: SR leukemia
# KM12 colon = test system: KM12 colon
# MOLT-4 leukemia = test system: MOLT-4 leukemia
# TK-10 renal = test system: TK-10 renal
# SK-MEL-5 melanoma = test system: SK-MEL-5 melanoma
# HCT-116 colon = test system: HCT-116 colon
# CCRF-CEM leukemia = test system: CCRF-CEM leukemia
# RXF 393 renal = test system: RXF 393 renal
# HL-60(TB) leukemia = test system: HL-60(TB) leukemia
# NCI/ADR-RES ovarian = test system: NCI/ADR-RES ovarian
# HT29 colon = test system: HT29 colon
structure (smiles),measurement,setting,value
CCc1ccc(CNCC(O)c2ccccc2)cc1 (configuration not stated),GI50,T-47D breast,20.2 µM
same,TGI,T-47D breast,51.9 µM
same,GI50,BT-549 breast,8.3 µM
same,TGI,BT-549 breast,> 100 µM
same,GI50,MCF7 breast,15.5 µM
same,TGI,MCF7 breast,34.2 µM
same,GI50,NCI-H23 lung,49.2 µM
same,TGI,NCI-H23 lung,> 100 µM
same,GI50,OVCAR-5 ovarian,18.1 µM
same,TGI,OVCAR-5 ovarian,44.2 µM
same,GI50,NCI-H522 lung,24.7 µM
same,TGI,NCI-H522 lung,70.5 µM
same,GI50,MALME-3M melanoma,14.8 µM
same,TGI,MALME-3M melanoma,31.2 µM
same,GI50,SK-OV-3 ovarian,63 µM
same,TGI,SK-OV-3 ovarian,> 100 µM
same,GI50,SNB-75 CNS,5.39 µM
same,TGI,SNB-75 CNS,42.2 µM
same,GI50,OVCAR-4 ovarian,29.6 µM
same,TGI,OVCAR-4 ovarian,> 100 µM
same,GI50,LOX IMVI melanoma,16.4 µM
same,TGI,LOX IMVI melanoma,34 µM
same,GI50,MDA-MB-435,6.93 µM
same,TGI,MDA-MB-435,20.1 µM
same,GI50,SW-620 colon,18.5 µM
same,TGI,SW-620 colon,42.9 µM
same,GI50,COLO 205 colon,16.6 µM
same,TGI,COLO 205 colon,33 µM
same,GI50,SF-268 CNS,33.6 µM
same,TGI,SF-268 CNS,> 100 µM
same,GI50,SNB-19 CNS,46.9 µM
same,TGI,SNB-19 CNS,> 100 µM
same,GI50,786-0 renal,20.1 µM
same,TGI,786-0 renal,53.8 µM
same,GI50,UO-31 renal,18.9 µM
same,TGI,UO-31 renal,> 100 µM
same,GI50,PC-3 prostate,34.8 µM
same,TGI,PC-3 prostate,> 100 µM
same,GI50,UACC-257 melanoma,16.2 µM
same,TGI,UACC-257 melanoma,35.7 µM
same,GI50,ACHN renal,31.4 µM
same,TGI,ACHN renal,> 100 µM
same,GI50,SN12C renal,33.5 µM
same,TGI,SN12C renal,> 100 µM
same,GI50,HOP-92 NSCLC,6.14 µM
same,TGI,HOP-92 NSCLC,38.1 µM
same,GI50,DU-145 prostate,35.5 µM
same,TGI,DU-145 prostate,> 100 µM
same,GI50,RPMI-8226 leukemia,22.7 µM
same,TGI,RPMI-8226 leukemia,53.3 µM
same,GI50,OVCAR-8 ovarian,26.5 µM
same,TGI,OVCAR-8 ovarian,> 100 µM
same,GI50,NCI-H460 lung,19.1 µM
same,TGI,NCI-H460 lung,42.8 µM
same,GI50,HOP-62 NSCLC,37.1 µM
same,TGI,HOP-62 NSCLC,> 100 µM
same,GI50,SK-MEL-2 melanoma,17.2 µM
same,TGI,SK-MEL-2 melanoma,33.7 µM
same,GI50,OVCAR-3 ovarian,25.2 µM
same,TGI,OVCAR-3 ovarian,79.2 µM
same,GI50,SF-539 CNS,16.5 µM
same,TGI,SF-539 CNS,39.5 µM
same,GI50,U251 CNS,17.7 µM
same,TGI,U251 CNS,43.1 µM
same,GI50,SK-MEL-28 melanoma,14.5 µM
same,TGI,SK-MEL-28 melanoma,28.7 µM
same,GI50,IGROV1 ovarian,47.8 µM
same,TGI,IGROV1 ovarian,> 100 µM
same,GI50,CAKI-1 renal,25.4 µM
same,TGI,CAKI-1 renal,> 100 µM
same,GI50,K-562 leukemia,7.85 µM
same,TGI,K-562 leukemia,62.6 µM
same,GI50,NCI-H226 lung,> 100 µM
same,TGI,NCI-H226 lung,> 100 µM
same,GI50,HCT-15 colon,17.3 µM
same,TGI,HCT-15 colon,53 µM
same,GI50,SF-295 CNS,16.5 µM
same,TGI,SF-295 CNS,35.5 µM
same,GI50,HS 578T breast,28.1 µM
same,TGI,HS 578T breast,> 100 µM
same,GI50,A498 renal,5.14 µM
same,TGI,A498 renal,47.2 µM
same,GI50,HCC-2998 colon,17.9 µM
same,TGI,HCC-2998 colon,36.8 µM
same,GI50,A549 NSCLC,39.2 µM
same,TGI,A549 NSCLC,> 100 µM
same,GI50,MDA-MB-231 breast,13.2 µM
same,TGI,MDA-MB-231 breast,35.7 µM
same,GI50,UACC-62 melanoma,16.5 µM
same,TGI,UACC-62 melanoma,32.4 µM
same,GI50,SR leukemia,13.5 µM
same,TGI,SR leukemia,49.2 µM
same,GI50,KM12 colon,15 µM
same,TGI,KM12 colon,32.1 µM
same,GI50,MOLT-4 leukemia,21.8 µM
same,TGI,MOLT-4 leukemia,54.5 µM
same,GI50,TK-10 renal,34.2 µM
same,TGI,TK-10 renal,> 100 µM
same,GI50,SK-MEL-5 melanoma,15.7 µM
same,TGI,SK-MEL-5 melanoma,29.2 µM
same,GI50,HCT-116 colon,28.4 µM
same,TGI,HCT-116 colon,> 100 µM
same,GI50,CCRF-CEM leukemia,34.5 µM
same,TGI,CCRF-CEM leukemia,> 100 µM
same,GI50,RXF 393 renal,14.3 µM
same,TGI,RXF 393 renal,45.5 µM
same,GI50,HL-60(TB) leukemia,23.4 µM
same,TGI,HL-60(TB) leukemia,68.6 µM
same,GI50,NCI/ADR-RES ovarian,20.8 µM
same,TGI,NCI/ADR-RES ovarian,71.2 µM
same,GI50,HT29 colon,21.5 µM
same,TGI,HT29 colon,68.4 µM
